Assay results as given in patent US11584711B2, “2,2,2-trifluoroacetic acid 1-(2,4-dimethylphenyl)-2-[(3-methoxyphenyl)methylene] method of making the same” (Abrexa Pharmaceuticals, Inc., priority 2018, dated 2023).
In brackets after ≈: the same amount, converted by molar mass. Entries after “also recorded” stand apart in the source; their conditions may differ. Where two headings read alike, the source gives them in different places.

Tests used:
[1] = Heat storage / variable temperature XRD form conversion; format: physicochemical; conditions: for form conversion by XRD: 40° C. oven over weekend
Method: Recrystallization Using Heat: Amorphous/glass samples from Panel 1 were placed in a vacuum oven at 60° C. for 6 days. […] A sample of Form I was placed in a 40° C. in oven over a weekend.

[2] = Static Vapor Sorption Study; format: physicochemical; conditions: 75% RH static humidity chamber, ambient temperature, after 5 and 12 days
From the text: Static Vapor Sorption Study: A […] vapor sorption study was done in a sealed humidity chamber with an automatic moisture sorption balance. Data collected during dynamic vapor sorption studies often are not at thermodynamic equilibrium. To determine if the Form I and Form II material form a hydrate over time, samples were monitored in a 75% static humidity chamber.
In these studies, samples were stored in open Petri dishes in a chamber containing a saturated salt solution to maintain the relative vapor pressure. A solution of saturated sodium chloride (75% RH) salt at ambient temperature was used.
The samples were examined gravimetrically after 5 and 12 days.

[3] = Grinding; format: physicochemical; conditions: ball mill 1 minute at 4800 oscillations per minute
Method: Grinding: Form I was ground using a Crescent Wig-L-Bug ball mill for 1 minute at 4800 oscillations per minute (3.2 m/s).

[4] = Hygroscopicity-Dynamic Vapor Sorption (DVS); format: physicochemical; conditions: 25° C.; for tendency to hydrate formation (DVS): 0 to 95% RH; for total weight loss (DVS): at 95% RH
Method: Hygroscopicity-Dynamic Vapor Sorption (DVS): DVS is a gravimetric screening technique that measures how quickly and how much of a solvent (water) is adsorbed by a sample. The relative humidity or vapor concentration surrounding the sample is varied while the change in mass of the sample is measured. […] The mass values at each relative humidity step are used to generate the isotherm. Isotherms are divided in two components: sorption for increasing humidity steps and desorption for decreasing humidity steps.
The samples were analyzed using a TA Q2000 automated dynamic vapor sorption analyzer. The samples were dried at 40° C. for 5 hours and then cooled to 25° C. with a dry nitrogen purge over them until they no longer lost mass at 0% RH. The samples were then subjected to 0 to 95% RH, back to 0% RH at 25° C. in 5% RH steps.

[5] = Polymorph screen summary of solid state forms; format: physicochemical; conditions: room temperature and pressure
From the text: The raw diffraction data generated from the polymorph screening experiments were categorized into two polymorphic forms. Samples of these different forms were used to perform additional experiments (DSC, TGA, HSM, etc.) to refine the forms.
The main result is the discovery of two anhydrous polymorphic forms of J147. The polymorphic forms isolated in this Example were designated I and II. At room temperature and pressure Form II is the thermodynamically form of J147. Form I is the metastable form at room temperature and pressure.

[6] = Competitive Slurry Experiments; format: physicochemical; conditions: ambient temperature and pressure
Method: These experiments rely on the solubility differences of different polymorphic forms.
The slurry experiments were performed by exposing excess material of Forms I and II to a small volume of solvent/water and agitating the resulting suspensions for several days at ambient temperature. The solids were filtered and analyzed by XRD and DSC to determine the resulting form. To avoid possible desolvation or physical change after isolation, the sample was not dried before x-ray analysis.

[7] = Visual Solubility Measurement; format: physicochemical; conditions: thermodynamic from solid, ambient temperature, read-out: Approximate Solubility
Method: Visual Solubility Measurement: Approximately 80 mg of J147 was placed into each of 25 vials. Solvent was added and vials were stirred for several minutes at ambient temperature, followed by visual observation for remaining solids. The solvent was incrementally added until the solids were dissolved, or until a maximum volume of solvent was added and the experiment was terminated. These stock solutions were used to set up further panels of experiments.

[8] = tested on: normal rodents; conditions: cited from earlier work
[9] = tested on: neurotoxicity pathways related to aging and neurodegenerative diseases; conditions: assays indicating distinct neurotoxicity pathways; cited from earlier work
[10] = tested on: transgenic AD mouse model; conditions: cited from earlier work

COc1cccc(/C=N/N(C(=O)C(F)(F)F)c2ccc(C)cc2C)c1 [Amorphous/glass samples from Panel 1]
form by XRD after heating ([1]; vacuum oven at 60° C. for 6 days): XRD pattern of Form II

COc1cccc(C=NN(C(=O)C(F)(F)F)c2ccc(C)cc2C)c1 [Form I, 2,2,2-trifluoroacetic acid 1-(2,4-Dimethylphenyl)-2-[(3-methoxyphenyl)methylene]hydrazide]
hydrate formation (gravimetric weight change) [2]: no hydrate formation
form transformation by XRD after grinding [3]: no transformation
tendency to hydrate formation (DVS) [4]: does not appear to be prone to hydrate formation; also recorded: did not appear to be prone to hydrate formation
total weight loss (DVS) [4]: approximately 0.5%
Description (thermodynamic stability of form) [5]: Metastable
form conversion by XRD [1]: conversion to Form II
form conversion by variable temperature XRD ([1]; held at 35° C. over a weekend): no form conversion

COc1cccc(C=NN(C(=O)C(F)(F)F)c2ccc(C)cc2C)c1 [Form II, 2,2,2-trifluoroacetic acid 1-(2,4-Dimethylphenyl)-2-[(3-methoxyphenyl)methylene]hydrazide]
hydrate formation (gravimetric weight change) [2]: no hydrate formation
solubility and thermodynamic stability relative to Form I [6]: less soluble, more thermodynamically stable
tendency to hydrate formation (DVS) [4]: does not appear to be prone to hydrate formation
total weight loss (DVS) [4]: approximately 0.5%
Description (thermodynamic stability of form) [5]: Thermodynamically
form conversion by XRD [1]: no form conversion

COc1cccc(/C=N/N(C(=O)C(F)(F)F)c2ccc(C)cc2C)c1 [Form J147, 2,2,2-trifluoroacetic acid 1-(2,4-Dimethylphenyl)-2-[(3-methoxyphenyl)methylene] hydrazide]
solubility ([7]; organic solvent or mixture, 1-butanol): 40 mg/mL (≈ 114 mM)
solubility ([7]; organic solvent or mixture, 1-propanol): > 80 mg/mL
solubility ([7]; organic solvent or mixture, 2-butanol): 40 mg/mL (≈ 114 mM)
solubility ([7]; organic solvent or mixture, 2-propanol): 40 mg/mL (≈ 114 mM)
solubility ([7]; organic solvent or mixture, acetone): > 80 mg/mL
solubility ([7]; organic solvent or mixture, acetonitrile (ACN)): > 80 mg/mL
solubility ([7]; organic solvent or mixture, butyl amine): > 80 mg/mL
solubility ([7]; organic solvent or mixture, chloroform): > 80 mg/mL
solubility ([7]; organic solvent or mixture, dichloromethane (DCM)): > 80 mg/mL
solubility ([7]; organic solvent or mixture, dimethyl formamide (DMF)): > 80 mg/mL
solubility ([7]; organic solvent or mixture, dimethylacetamide (DMA)): > 80 mg/mL
solubility ([7]; organic solvent or mixture, ethanol): > 80 mg/mL
solubility ([7]; organic solvent or mixture, ethyl acetate): > 80 mg/mL
solubility ([7]; organic solvent or mixture, heptane): 8 mg/mL (≈ 22.8 mM)
solubility ([7]; organic solvent or mixture, isopropyl acetate): > 80 mg/mL
solubility ([7]; organic solvent or mixture, isopropyl ether): > 80 mg/mL
solubility ([7]; organic solvent or mixture, methanol): > 80 mg/mL
solubility ([7]; organic solvent or mixture, methyl ethyl ketone (MEK)): > 80 mg/mL
solubility ([7]; organic solvent or mixture, methyl tert butyl ether (MTBE)): > 80 mg/mL
solubility ([7]; organic solvent or mixture, nitromethane): > 80 mg/mL
solubility ([7]; organic solvent or mixture, pyridine): > 80 mg/mL
solubility ([7]; organic solvent or mixture, tetrahydrofuran (THF)): > 80 mg/mL
solubility ([7]; organic solvent or mixture, toluene): > 80 mg/mL
solubility ([7]; organic solvent or mixture, trifluoroethanol): > 80 mg/mL
solubility ([7]; water): < 1.6 mg/mL
effect on memory [8]: improve memory
EC50 [9]: 10 to 200 nM
effect on synaptic proteins and cognitive decline [10]: prevent the loss of synaptic proteins and cognitive decline
